Assay results from patent US20140045885A1, “Decoquinate, 4-hydroxyquinolones and napthoquinones combined with levamisole, Imidazothiazole, for the prevention and treatment of sarcocystosis and equine protozoal myeloencephalitis caused by Sarcocystis and Neospora and other apicomplexan protozoans” (priority 2012, published 2014).
Where two headings read alike, the source gives them in different places.

Legend:
[1] = system: Sarcocystis neurona merozoites (SN2 strain); conditions: 0.1 microgram/ml decoquinate for 10 or 20 minutes, washed off, cultures maintained 16 days, controls 40% CPE; cited from earlier work
[2] = system: Sarcocystis neurona merozoites (SN3 strain); conditions: cited from earlier work
[3] = Safety at the treatment dose in 150 horses; format: in vivo, horse; conditions: decoquinate 0.5 mG/kG and levamisole 1 mG/kG alone and in combination
[4] = system: Sarcocystis neurona merozoites (SN3 strain); conditions: 0.1 microgram/ml decoquinate for 10 or 20 minutes, washed off, cultures maintained 16 days, controls 25% CPE; cited from earlier work
[5] = system: S. neurona infections or EPM; assay: Trial in horses with presumptive diagnosis of EPM; format: in vivo, horse
Method: A trial was initiated in which veterinarians conducted neurological examinations and determined a presumptive diagnosis of EPM. […] The phenotype of S. neurona eliciting antibody production was determined for each animal. […] A neurological exam was conducted at the end of the treatment period and two to four weeks following treatment. Two to four weeks after treatment antibody levels were again assessed for serum antibody levels to S. neurona by phenotype. […] Veterinarians involved in the study elected to start decoquinate therapy at 0.05 mG/kG if the animals had received anti-protozoal therapy in the past and the case was considered a relapse of EPM.

[6] = system: Sarcocystis neurona merozoites (SN6 strain); conditions: 0.1 microgram/ml decoquinate for 5 or 15 minutes, washed off, read at 6 weeks; cited from earlier work
[7] = system: EPM; conditions: cited from earlier work; for cure rate / relapse rate: EPM treatment in horses; for efficacy in horses to improve one grade of disease: EPM treatment
[8] = system: S. neurona; conditions: cell cultures infected with S. neurona; cited from earlier work
[9] = cited from earlier work
[10] = cited from earlier work; remark: listed apart in the source
[11] = in vivo; cited from earlier work
[12] = horses, 5 mg/kg daily for 10 days

CCCCCCCCCCOc1cc2c(O)c(C(=O)OCC)cnc2cc1OCC [decoquinate, 6-declyoxy-7-ethoxy-4-hydroxy-3-quinoline-carboxylic acid ethyl ester]
cytopathic effect (CPE) [1]: 5%
reduction in merozoite production ([2]; 0.0001 microgram/ml continuously for 10 days): 40%
reduction in merozoite production ([2]; 0.001 microgram/ml continuously for 10 days): 87%
reduction in merozoite production ([2]; 0.01 microgram/ml continuously for 10 days): 98%
adverse reactions [3]: no adverse reactions
parasites or parasite induced lesions in treated infected flasks [4]: No parasites or parasite induced lesions were seen
time of therapy until noted improvement ([5]; decoquinate alone 0.05 mG/kG versus decoquinate/levamisole 0.5 mG/kG and 1.0 mg/kG): > 5 days
treatment outcome in mildly afflicted horses ([5]; prevention dose 0.05 mG/kG decoquinate alone, 90 days, 7 horses): success obtained in all the horses
success in historically relapsing horses ([5]; relapse cases after Marquis (17) or pyrimethamine/sulfadiazine (2), decoquinate therapy started at 0.05 mG/kG): 100%
parasites or parasite induced lesions in treated infected flasks [6]: No parasites or parasite induced lesions were seen

N#CC(c1ccc(Cl)cc1)c1c(Cl)cc(-n2ncc(=O)[nH]c2=O)cc1Cl (stereo not shown) [diclazuril]
cure rate [7]: less than 25%
relapse rate [7]: 60%
efficacy in horses to improve one grade of disease [7]: 60%
anti-S. neurona activity in cell cultures [8]: has anti-S. neurona activity
time after feeding at which drug was found in serum ([9]; fed to horses): one

c1ccc([C@H]2CN3CCSC3=N2)cc1 [levamisole]
adverse reactions [3]: no adverse reactions

Cc1cc(-n2c(=O)[nH]c(=O)n(C)c2=O)ccc1Oc1ccc(SC(F)(F)F)cc1 [toltrazuril]
lipid solubility [10]: good lipid solubility
cure rate [7]: less than 25%
relapse rate [7]: 60%
efficacy in horses to improve one grade of disease [7]: 60%
mean CSF concentration [9, 12]: 160 µg/mL
plasma levels [9, 12]: 20000 ng/mL
oral absorption ([9]; in vivo, po): good oral absorption
elimination time ([9]; in vivo): 48 to 72 h
complications, serum chemistry values, complete blood counts [11]: has not been shown to result in any complications
